Results published in PubChem BioAssay AID192 (DTP/NCI, 2004).
Values joined by “and” are separate entries in the source; they are usually repeats but may differ in a detail not shown here. Equal entries are not always repeated. Inconclusive results and toxic doses are left out. Numbered stars: 1 amine (or outer) side, 2 acyl side, 3 side chain; on linkers, the order of the positions; unused ones are H or OH. Bridge positions count the residues as written; N and C are the ends. Square brackets hold non-standard residues; d marks the D form. Peptide text beside a SMILES is read from it. I, II: the chains in the order shown. Actinocin(9to1) = Cc1c2oc3c(C)ccc(C(=O)[*:1])c3nc-2c(C(=O)[*:2])c(N)c1=O; aThr = C[C@H](O)[C@H](N)C(=O)O; NMeV = CN[C@H](C(=O)O)C(C)C; Sar = CNCC(=O)O

System: BDF1 mice, B16 melanoma ip, median survival T/C
Assay: NCI In Vivo Anticancer Drug Screen. Data for tumor model B16 Melanoma (intraperitoneal) in B6D2F1 (BDF1) mice
Conditions: endpoint: median survival time, higher = longer survival
Method in brief: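 Antitumor activity is assessed in mice bearing a transplanted tumor, with survival or tumor size compared against vehicle-dosed controls and expressed as T/C.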

## c1cc2n(n1)CCN2
dose: 12.5 mg/kg/injection, schedule: Q01DX009 (ip), vehicle: saline
  T/C: 102 % of control
dose: 18.75 mg/kg/injection, schedule: Q01DX009 (ip), vehicle: saline
  T/C: 116 % of control
dose: 25.0 mg/kg/injection, schedule: Q01DX009 (ip), vehicle: saline
  T/C: 102 % of control
dose: 37.5 mg/kg/injection, schedule: Q01DX009 (ip), vehicle: saline
  T/C: 100 % of control
dose: 50.0 mg/kg/injection, schedule: Q01DX009 (ip), vehicle: saline
  T/C: 106 % of control
dose: 75.0 mg/kg/injection, schedule: Q01DX009 (ip), vehicle: saline
  T/C: 93 % of control
dose: 150.0 mg/kg/injection, schedule: Q01DX009 (ip), vehicle: saline
  T/C: 106 % of control
dose: 200.0 mg/kg/injection, schedule: Q04DX003 (ip), vehicle: saline with Tween-80
  T/C: 108 % of control
dose: 400.0 mg/kg/injection, schedule: Q04DX003 (ip), vehicle: saline with Tween-80
  T/C: 108 % of control

## Cc1c2oc3c(C)ccc(C(=O)N[C@@H]4C(=O)N[C@H](C(C)C)C(=O)N5CCC[C@H]5C(=O)N(C)CC(=O)N(C)[C@@H](C(C)C)C(=O)O[C@H]4C)c3nc-2c(C(=O)N[C@@H]2C(=O)N[C@H](C(C)C)C(=O)N3CCC[C@H]3C(=O)N(C)CC(=O)N(C)[C@@H](C(C)C)C(=O)O[C@H]2C)c(N)c1=O (I: [aThr][dV]P[Sar][NMeV] / II: [aThr][dV]P[Sar][NMeV]; ester I:1-I:C, II:1-II:C; linker I:N-II:N via Actinocin(9to1))
dose: 0.03 mg/kg/injection, schedule: Q01DX009 (ip), vehicle: water
  T/C: 157 % of control
dose: 0.05 mg/kg/injection, schedule: Q01DX009 (ip), vehicle: water
  T/C: 186 % of control
dose: 0.05 mg/kg/injection, schedule: Q04DX003 (ip), vehicle: saline
  T/C: 123 % of control and 124 % of control
dose: 0.08 mg/kg/injection, schedule: Q01DX009 (ip), vehicle: saline
  T/C: 169 % of control
dose: 0.13 mg/kg/injection, schedule: Q01DX009 (ip), vehicle: saline
  T/C: 44 % of control
dose: 0.2 mg/kg/injection, schedule: Q04DX003 (ip), vehicle: saline
  T/C: 164 % of control
dose: 0.22 mg/kg/injection, schedule: Q01DX009 (ip), vehicle: saline
  T/C: 42 % of control
dose: 0.4 mg/kg/injection, schedule: Q04DX003 (ip), vehicle: saline
  T/C: 65 % of control and 69 % of control
dose: 0.5 micrograms/kg/injection, schedule: Q01DX009 (ip), vehicle: saline
  T/C: 119 % of control
dose: 2.0 micrograms/kg/injection, schedule: Q01DX009 (ip), vehicle: saline
  T/C: 116 % of control
dose: 4.0 micrograms/kg/injection, schedule: Q01DX009 (ip), vehicle: saline
  T/C: 150 % of control
dose: 6.25 micrograms/kg/injection, schedule: Q01DX009 (ip), vehicle: saline
  T/C: 101 % of control
dose: 6.3 micrograms/kg/injection, schedule: Q01DX009 (ip), vehicle: saline
  T/C: 96 % of control
dose: 6.5 micrograms/kg/injection, schedule: Q01DX009 (ip), vehicle: saline
  T/C: 120 % of control
dose: 10.8 micrograms/kg/injection, schedule: Q01DX009 (ip), vehicle: saline
  T/C: 112 % of control
dose: 12.5 micrograms/kg/injection, schedule: Q01DX009 (ip), vehicle: water
  T/C: 120 % of control
dose: 16.0 micrograms/kg/injection, schedule: Q01DX009 (ip), vehicle: saline
  T/C: 157 % of control
dose: 16.0 micrograms/kg/injection, schedule: Q01DX017 (ip), vehicle: saline
  T/C: 185 % of control
dose: 21.6 micrograms/kg/injection, schedule: Q01DX009 (ip), vehicle: saline + alcohol
  T/C: 123 % of control
dose: 25.0 micrograms/kg/injection, schedule: Q01DX009 (ip), vehicle: saline + alcohol
  T/C: 120 % of control
dose: 32.0 micrograms/kg/injection, schedule: Q01DX005 (ip), vehicle: saline
  T/C: 120 % of control
dose: 32.0 micrograms/kg/injection, schedule: Q01DX009 (ip), vehicle: saline
  T/C: 155 % of control
dose: 32.0 micrograms/kg/injection, schedule: Q01DX017 (ip), vehicle: saline
  T/C: 200 % of control
dose: 36.0 micrograms/kg/injection, schedule: Q01DX009 (ip), vehicle: saline + alcohol
  T/C: 152 % of control
dose: 37.5 micrograms/kg/injection, schedule: Q01DX009 (ip), vehicle: saline + alcohol
  T/C: 153 % of control
dose: 37.5 micrograms/kg/injection, schedule: Q01DX009 (ip), vehicle: saline
  T/C: 159 % of control
dose: 37.5 micrograms/kg/injection, schedule: Q04DX003 (ip), vehicle: saline
  T/C: 118 % of control
dose: 38.9 micrograms/kg/injection, schedule: Q04DX003 (ip), vehicle: saline + alcohol
  T/C: 123 % of control
dose: 50.0 micrograms/kg/injection, schedule: Q01DX009 (ip), vehicle: saline + alcohol
  T/C: 158 % of control
dose: 50.0 micrograms/kg/injection, schedule: Q01DX009 (ip), vehicle: water
  T/C: 152 % of control and 166 % of control
dose: 60.0 micrograms/kg/injection, schedule: Q01DX009 (ip), vehicle: saline + alcohol
  T/C: 152 % of control and 161 % of control
dose: 64.0 micrograms/kg/injection, schedule: Q01DX005 (ip), vehicle: saline
  T/C: 152 % of control
dose: 64.8 micrograms/kg/injection, schedule: Q04DX003 (ip), vehicle: saline + alcohol
  T/C: 154 % of control
dose: 75.0 micrograms/kg/injection, schedule: Q01DX009 (ip), vehicle: saline
  T/C: 186 % of control
dose: 75.0 micrograms/kg/injection, schedule: Q04DX003 (ip), vehicle: water
  T/C: 123 % of control
dose: 83.0 micrograms/kg/injection, schedule: Q01DX009 (ip), vehicle: saline
  T/C: 175 % of control
dose: 100.0 micrograms/kg/injection, schedule: Q01DX009 (ip), vehicle: saline + alcohol
  T/C: 169 % of control
dose: 100.0 micrograms/kg/injection, schedule: Q01DX009 (ip), vehicle: water
  T/C: 175 % of control
dose: 108.0 micrograms/kg/injection, schedule: Q04DX003 (ip), vehicle: saline + alcohol
  T/C: 150 % of control and 159 % of control and 160 % of control
dose: 128.0 micrograms/kg/injection, schedule: Q01DX005 (ip), vehicle: saline
  T/C: 165 % of control
dose: 128.0 micrograms/kg/injection, schedule: Q04DX003 (ip), vehicle: saline
  T/C: 150 % of control
dose: 180.0 micrograms/kg/injection, schedule: Q04DX003 (ip), vehicle: saline + alcohol
  T/C: 164 % of control and 172 % of control and 176 % of control
dose: 225.0 micrograms/kg/injection, schedule: Q04DX003 (ip), vehicle: saline + alcohol
  T/C: 91 % of control
dose: 225.0 micrograms/kg/injection, schedule: Q04DX003 (ip), vehicle: saline
  T/C: 159 % of control
dose: 256.0 micrograms/kg/injection, schedule: Q04DX003 (ip), vehicle: saline
  T/C: 165 % of control
dose: 300.0 micrograms/kg/injection, schedule: Q04DX003 (ip), vehicle: saline
  T/C: 168 % of control and 169 % of control
dose: 300.0 micrograms/kg/injection, schedule: Q04DX003 (ip), vehicle: water
  T/C: 106 % of control
dose: 500.0 micrograms/kg/injection, schedule: Q04DX003 (ip), vehicle: saline + alcohol
  T/C: 101 % of control
dose: 512.0 micrograms/kg/injection, schedule: Q01DX001 (ip), vehicle: saline
  T/C: 92 % of control
dose: 600.0 micrograms/kg/injection, schedule: Q04DX003 (ip), vehicle: saline
  T/C: 231 % of control
